Reference: US4073941A, “Aralkyl amides having antidepressive activity” (priority 1975, dated 1978)
Converted amounts (≈) assume the structure as drawn. Counter-ions that a name gives are not always drawn. Like-named read-outs stand apart in the source and are kept apart here.

How the values were obtained:
[1] = test system: 5-HTP induced behavioural syndrome in mice; assay: 5-HTP response potentiation test; type: in vivo; settings: Mus musculus, least dose producing maximal score (+3) in all animals, before dl-5-HTP 90 mg/kg i.v.
Procedure: 1. 5-HTP response potentiation test
Inhibition of the uptake of 5-HT potentiates the effects of administered 5-hydroxytryptophan (5-HTP) probably by increasing the amount of 5-HT at the receptor. Three mice are given the test drugs 1 hour (or 4, 24 hours) before d1-5-HTP 90 mg/kg i.v. 5-HTP alone gives only a weak behavioural syndrome but in pretreated mice there is seen a characteristic behavioural syndrome, which comes within 5 minutes: tremor, lordosis, abduction of the hindlegs, head-twiches. The strength of the syndrome is scored from 0 to +3. Each group consists of 3 animals and at least 4 groups were tested at 25 mg/kg i.p. Control groups receiving imipramine (Tofranil®) are used as reference, since imipramine constantly potentiated d1-5-HTP. The least dose of the test compound producing maximal score (+3) in all animals is estimated from a logarithmic dose-response curve, and is denoted "effective dose" in the following Table.

[2] = test system: uptake of 3H-NA (noradrenaline) in brain slices; assay: Inhibition of the uptake of 3H-noradrenaline in midbrain slices after in vivo i.p. administration to mice; settings: Mus musculus, ip, 0.5 h; dose producing 50 percent decrease of active uptake (ED50); i.p. half an hour before killing; 1-noradrenaline 1×10^-7 M
Procedure: (§1) 1. Inhibition of the uptake of carbon-14 5-HT and tritiated noradrenaline in vitro and in vivo
(§2) The method is described by Ross, Renyi and Ogren in European Journal of Pharmacology 17 (1972), 107-112. […] In the in vitro experiments different concentrations of the test compound were added to the incubation medium. In the in vivo experiments different doses of the test drug were administered intraperitoneally half an hour before the animals were killed. The incubation performance was the same in the two types of experiments, i.e. the midbrain was taken out and sliced and incubated in a mixture consisting of, per 100 mg of brain slices, 0.2 n-mole of ^14 C-5-HT, 0.2 n-mole of ^3 H-NA and 11 μmole of glucose in 2 ml of Krebs-Henseleit buffer, pH 7.4. The incubation time was 5 minutes. The radioactive amines taken up in the slices were dissolved in Soluene-350® (Packard) and the amounts were determined with the double labelling technique by liquid scintillation. The concentration or dose producing 50 percent decrease of the active uptake (ED50) was determined graphically from dose-response curves. Active uptake is defined as that part of the radioactive uptake which is inhibited by a high concentration of cocaine. All doses were given at least to four animals.

[3] = test system: uptake of 14C-5-HT (5-hydroxytryptamine) in brain slices; assay: Inhibition of the uptake of 14C-5-HT in midbrain slices after in vivo i.p. administration to mice; settings: Mus musculus, ip, 0.5 h; dose producing 50 percent decrease of active uptake (ED50); i.p. half an hour before killing; 5-HT 1×10^-7 M
Procedure: as §1, §2

[4] = test system: uptake of 3H-NA (noradrenaline) in brain slices; assay: Inhibition of the uptake of 3H-noradrenaline in mouse midbrain slices, compound added in vitro; type: cell-based, mice; settings: 5 min, read-out: Inhibition (50 %) of uptake in vitro NA
Procedure: as §1
(§3) The method is described by Ross, Renyi and Ogren in European Journal of Pharmacology 17 (1972), 107-112. Tricyclic antidepressant drugs of type imipramine added in vitro or given in vivo to mice decrease the uptake of ^14 C-5-HT and ^3 H-NA in vitro. In the in vitro experiments different concentrations of the test compound were added to the incubation medium. In the in vivo experiments different doses of the test drug were administered intraperitoneally half an hour before the animals were killed. The incubation performance was the same in the two types of experiments, i.e. the midbrain was taken out and sliced and incubated in a mixture consisting of, per 100 mg of brain slices, 0.2 n-mole of ^14 C-5-HT, 0.2 n-mole of ^3 H-NA and 11 μmole of glucose in 2 ml of Krebs-Henseleit buffer, pH 7.4. The incubation time was 5 minutes. The radioactive amines taken up in the slices were dissolved in Soluene-350® (Packard) and the amounts were determined with the double labelling technique by liquid scintillation. The concentration or dose producing 50 percent decrease of the active uptake (ED50) was determined graphically from dose-response curves. Active uptake is defined as that part of the radioactive uptake which is inhibited by a high concentration of cocaine. […]

[5] = test system: uptake of 14C-5-HT (5-hydroxytryptamine) in brain slices; assay: Inhibition of the uptake of 14C-5-HT in mouse midbrain slices, compound added in vitro; type: cell-based, mice; settings: 5 min, concentration producing 50 percent decrease of active uptake (ED50), 5-HT 1×10^-7 M, 5 min incubation
Procedure: as §1, §3

CN(C)CCCN1c2ccccc2CCc2ccccc21 [Imipramine, imipramine]
minimal effective dose [1]: 15 mg/kg
ED50 [2]: 6 mg/kg
ED50 [3]: 24 mg/kg
IC50 ([4]; concentration producing 50 percent decrease of active uptake (ED50), 1-noradrenaline 1×10^-7 M, mouse midbrain slices, 5 min incubation): 0.06 µg/mL (≈ 0.214 µM)
IC50 [5]: 0.1 µg/mL (≈ 0.357 µM)

CC(N)C(=O)NC(C)(C)Cc1ccc(Cl)cc1 (stereo not shown) [GEA 609, 2-amino-N^1 - 3-(4-chlorophenyl)-2-methyl-2-propyl! propanoic acid amide hydrochloride]
minimal effective dose [1]: 0.5 mg/kg
ED50 [2]: > 40 mg/kg
ED50 [3]: 20 mg/kg
IC50 ([4]; Mus musculus): > 10 µg/mL
IC50 [5]: 0.7 µg/mL
